Measurements from patent US6835728B2, “Drug combination for the treatment of depression and related disorders comprising mirtazapine” (Akzo Nobel N.V., priority 2001, dated 2004).
Marks after values point to notes of the source that are not given here.

Assays:
Assay type in all cases: in vivo
Sprague-Dawley rats [1] = test: Psychotropic drug class prediction by discriminant analysis of effects on rat sleep-waking behaviour; conditions: I.P.
Experimental: The effect profiles for these compounds at active doses were subjected to a discriminant analysis over these 6 psychoactive classes with placebo being added as an extra class. The resulting discriminant function was used to predict the pharmaco-therapeutic application area for gepirone alone and after co-administration with mirtazapine. Finally, the effect profiles of gepirone, mirtazapine, and the combination of gepirone and mirtazapine were calculated on the basis of vectors derived from the changes in sleep-wake organisation as shown in tables above. For each dose, the probability that the compound belongs to one of 7 defined classes was calculated.

mice = test: Defensive (marble) burying test in mice; conditions: mouse, administered alone, S.C., pre-treatment 30 min
Excerpt: Marble burying has been developed and validated as a pre-clinical assay of potential anxiolytic activity (Andrews and Broekkamp (1993). Procedures to identify anxiolytic or anxiogenic agents. In Behavioural Neuroscience, ed. A Sahgal, pp. 37-54. IRL Press, Oxford). The marble burying test places a naive mouse into a novel environment containing 25 marbles (arranged on top of a saw dust surface). A reduction in the number of marbles buried by the mouse has been hypothesised to be an anxiolytic-like/anti-depressant-like effect.
A further series of three separate experiments were conducted during which three single doses of mirtazapine (0.3, 1, 3 mg.kg^−1) were co-administered S.C. with a range of S.C. gepirone doses (0, 0.1, 0.3, 1, 3 mg.kg^−1).

Sprague-Dawley rats [2] = test: EEG sleep-waking behaviour test in rats; conditions: rat, I.P., change over control
Experimental: The aim of this test was to characterise the effects on rat sleep-waking behaviour of gepirone alone and of gepirone after co-administration with mirtazapine. To this end additionally the effects of mirtazapine on it own were investigated. Sleep-waking behaviour was analysed by using electroencephalographic (EEG) recordings, electromyographic (EMG) recordings, and by recording a movement index. On the basis of these signals sleep-waking behaviour was automatically classified per 2 second periods into 6 classes: active waking, passive waking, light sleep, deep sleep, intermediate stage sleep and REM sleep (Ruigt et al. A large scale automated system for rat sleep staging. I. Methodology and technical aspects. Electroenceph. and Clin. Neurophysiol.; 1989; 73:52-64). Each experiment is performed simultaneously on 32 adult male Sprague-Dawley rats (Harlan Olac, Bicester, UK, weighing […]), subdivided into four treatment groups. Throughout the whole experiment the animals stay in recording cages and are only taken out to be injected with vehicle or test compound(s). Each experiment contains three sessions. The first session (“test session”), commencing at 10:00 AM with a variable duration of 2-5 hours, serves as adaptation period and is used to assess the quality of the EEG and EMG signals recorded. The second and third sessions both start at 2:30 PM on two consecutive days and have a duration of 15.5 hours each. At the start of the second session all groups receive a vehicle treatment, at the start of the third session all groups receive their test compound(s). One of the treatment groups usually receives the vehicle treatment in both sessions to serve as a baseline for the other groups in the experiment. Separate experiments were done in which different single I.P. administered doses of either gepirone (1.0, 3.0, 10.0 mg/kg), or mirtazapine (2.2, 4.6, 10 mg/kg), or mirtazapine (2.2 mg/kg) in combination with gepirone (1.0, 3.0, 10 mg/kg) were tested. Gepirone was dissolved in 0.9% NaCl m/v in water (saline); mirtazapine was dissolved in 5% m/v Mulgofen (EL 719, GAF) in saline (=0.9% m/v NaCl in water). The drug-induced changes in sleep waking behaviours after I.P. administration of mirtazapine, gepirone, and mirtazapine in combination with gepirone are presented in Tables II, III and IV. […]

[3] = gepir 1.0 mg/kg, 0 to 3 hours after drug injection
[4] = gepir 1.0 mg/kg, 3 to 6 hours after drug injection
[5] = gepir 1.0 mg/kg, 9 to 15 hours after drug injection
[6] = gepir 3.0 mg/kg, 0 to 3 hours after drug injection
[7] = gepir 3.0 mg/kg, 3 to 6 hours after drug injection
[8] = gepir 3.0 mg/kg, 9 to 15 hours after drug injection
[9] = gepir 10.0 mg/kg, 0 to 3 hours after drug injection
[10] = gepir 10.0 mg/kg, 3 to 6 hours after drug injection
[11] = gepir 10.0 mg/kg, 9 to 15 hours after drug injection
[12] = mirt 2.2 mg/kg, 0 to 3 hours after drug injection
[13] = mirt 2.2 mg/kg, 3 to 6 hours after drug injection
[14] = mirt 2.2 mg/kg, 9 to 15 hours after drug injection

CC1(C)CC(=O)N(CCCCN2CCN(c3ncccn3)CC2)C(=O)C1 [Gepirone, gepirone]
Probability score AC (anticonvulsant) (Sprague-Dawley rats [1]; gepirone 1.0 mg/kg): 7%
Probability score AD (antidepressant) (Sprague-Dawley rats [1]; gepirone 1.0 mg/kg): 1%
Probability score APS (antipsychotic) (Sprague-Dawley rats [1]; gepirone 1.0 mg/kg): 31%
Probability score AXL (anxiolytic) (Sprague-Dawley rats [1]; gepirone 1.0 mg/kg): 6%
Probability score HYP (hypnotic) (Sprague-Dawley rats [1]; gepirone 1.0 mg/kg): 20%
Probability score PLAC (placebo) (Sprague-Dawley rats [1]; gepirone 1.0 mg/kg): 35%
Probability score STIM (stimulant) (Sprague-Dawley rats [1]; gepirone 1.0 mg/kg): 0%
Probability score AC (anticonvulsant) (Sprague-Dawley rats [1]; gepirone 3.0 mg/kg): 29%
Probability score AD (antidepressant) (Sprague-Dawley rats [1]; gepirone 3.0 mg/kg): 28%
Probability score APS (antipsychotic) (Sprague-Dawley rats [1]; gepirone 3.0 mg/kg): 14%
Probability score AXL (anxiolytic) (Sprague-Dawley rats [1]; gepirone 3.0 mg/kg): 15%
Probability score HYP (hypnotic) (Sprague-Dawley rats [1]; gepirone 3.0 mg/kg): 9%
Probability score PLAC (placebo) (Sprague-Dawley rats [1]; gepirone 3.0 mg/kg): 6%
Probability score STIM (stimulant) (Sprague-Dawley rats [1]; gepirone 3.0 mg/kg): 0%
Probability score AC (anticonvulsant) (Sprague-Dawley rats [1]; gepirone 10.0 mg/kg): 6%
Probability score AD (antidepressant) (Sprague-Dawley rats [1]; gepirone 10.0 mg/kg): 16%
Probability score APS (antipsychotic) (Sprague-Dawley rats [1]; gepirone 10.0 mg/kg): 3%
Probability score AXL (anxiolytic) (Sprague-Dawley rats [1]; gepirone 10.0 mg/kg): 63%
Probability score HYP (hypnotic) (Sprague-Dawley rats [1]; gepirone 10.0 mg/kg): 0%
Probability score PLAC (placebo) (Sprague-Dawley rats [1]; gepirone 10.0 mg/kg): 0%
Probability score STIM (stimulant) (Sprague-Dawley rats [1]; gepirone 10.0 mg/kg): 12%
ED50 marble burying (mice): 2.16 mg/kg
Latency from time of injection to Deep sleep (Sprague-Dawley rats [2]; [3]): 24%
Latency from time of injection to REM sleep (Sprague-Dawley rats [2]; [3]): 3%
Median duration Active waking (Sprague-Dawley rats [2]; [3]): −58* %
Median duration Deep sleep (Sprague-Dawley rats [2]; [3]): −2%
Median duration Intermediate sleep (Sprague-Dawley rats [2]; [3]): −11%
Median duration Light sleep (Sprague-Dawley rats [2]; [3]): 23%
Median duration Passive waking (Sprague-Dawley rats [2]; [3]): 13%
Median duration REM sleep (Sprague-Dawley rats [2]; [3]): 4%
Median duration Active waking (Sprague-Dawley rats [2]; [4]): 6%
Median duration Deep sleep (Sprague-Dawley rats [2]; [4]): −5%
Median duration Intermediate sleep (Sprague-Dawley rats [2]; [4]): 32%
Median duration Light sleep (Sprague-Dawley rats [2]; [4]): 8%
Median duration Passive waking (Sprague-Dawley rats [2]; [4]): 5%
Median duration REM sleep (Sprague-Dawley rats [2]; [4]): 20%
Median duration Deep sleep (Sprague-Dawley rats [2]; [5]): 2%
Median duration Intermediate sleep (Sprague-Dawley rats [2]; [5]): −2%
Median duration Light sleep (Sprague-Dawley rats [2]; [5]): 14%
Median duration Passive waking (Sprague-Dawley rats [2]; [5]): 38%
Median duration REM sleep (Sprague-Dawley rats [2]; [5]): −12%
Median duration Active waking (Sprague-Dawley rats [2]; gepir 1.0 mg/kg): −16%
Latency from time of injection to Deep sleep (Sprague-Dawley rats [2]; [6]): 24%
Latency from time of injection to REM sleep (Sprague-Dawley rats [2]; [6]): 360* %
Median duration Active waking (Sprague-Dawley rats [2]; [6]): −8%
Median duration Deep sleep (Sprague-Dawley rats [2]; [6]): −21%
Median duration Intermediate sleep (Sprague-Dawley rats [2]; [6]): −76%
Median duration Light sleep (Sprague-Dawley rats [2]; [6]): 8%
Median duration Passive waking (Sprague-Dawley rats [2]; [6]): 156* %
Median duration REM sleep (Sprague-Dawley rats [2]; [6]): −83* %
Median duration Active waking (Sprague-Dawley rats [2]; [7]): 30%
Median duration Deep sleep (Sprague-Dawley rats [2]; [7]): −6%
Median duration Intermediate sleep (Sprague-Dawley rats [2]; [7]): 64* %
Median duration Light sleep (Sprague-Dawley rats [2]; [7]): −2%
Median duration Passive waking (Sprague-Dawley rats [2]; [7]): 13%
Median duration REM sleep (Sprague-Dawley rats [2]; [7]): −3%
Median duration Active waking (Sprague-Dawley rats [2]; [8]): −37* %
Median duration Deep sleep (Sprague-Dawley rats [2]; [8]): −7%
Median duration Intermediate sleep (Sprague-Dawley rats [2]; [8]): 36%
Median duration Light sleep (Sprague-Dawley rats [2]; [8]): 67%
Median duration Passive waking (Sprague-Dawley rats [2]; [8]): 55%
Median duration REM sleep (Sprague-Dawley rats [2]; [8]): 40%
Latency from time of injection to Deep sleep (Sprague-Dawley rats [2]; [9]): 268%
Latency from time of injection to REM sleep (Sprague-Dawley rats [2]; [9]): 673* %
Median duration Active waking (Sprague-Dawley rats [2]; [9]): 72%
Median duration Deep sleep (Sprague-Dawley rats [2]; [9]): −63* %
Median duration Intermediate sleep (Sprague-Dawley rats [2]; [9]): −100* %
Median duration Light sleep (Sprague-Dawley rats [2]; [9]): −2%
Median duration Passive waking (Sprague-Dawley rats [2]; [9]): 198%
Median duration REM sleep (Sprague-Dawley rats [2]; [9]): −100* %
Median duration Active waking (Sprague-Dawley rats [2]; [10]): −18%
Median duration Deep sleep (Sprague-Dawley rats [2]; [10]): −19%
Median duration Intermediate sleep (Sprague-Dawley rats [2]; [10]): 56%
Median duration Light sleep (Sprague-Dawley rats [2]; [10]): 35%
Median duration Passive waking (Sprague-Dawley rats [2]; [10]): −40%
Median duration REM sleep (Sprague-Dawley rats [2]; [10]): −50* %
Median duration Active waking (Sprague-Dawley rats [2]; [11]): −23* %
Median duration Deep sleep (Sprague-Dawley rats [2]; [11]): −5%
Median duration Intermediate sleep (Sprague-Dawley rats [2]; [11]): 108* %
Median duration Light sleep (Sprague-Dawley rats [2]; [11]): 23%
Median duration Passive waking (Sprague-Dawley rats [2]; [11]): 7%
Median duration REM sleep (Sprague-Dawley rats [2]; [11]): 64%

CN1CCN2c3ncccc3Cc3ccccc3C2C1 (centres unmarked) [Mirtazapine, mirtazapine]
Probability score AC (anticonvulsant) (Sprague-Dawley rats [1]; mirtazapine 2.2 mg/kg): 9%
Probability score AD (antidepressant) (Sprague-Dawley rats [1]; mirtazapine 2.2 mg/kg): 22%
Probability score APS (antipsychotic) (Sprague-Dawley rats [1]; mirtazapine 2.2 mg/kg): 3%
Probability score AXL (anxiolytic) (Sprague-Dawley rats [1]; mirtazapine 2.2 mg/kg): 20%
Probability score HYP (hypnotic) (Sprague-Dawley rats [1]; mirtazapine 2.2 mg/kg): 29%
Probability score PLAC (placebo) (Sprague-Dawley rats [1]; mirtazapine 2.2 mg/kg): 16%
Probability score STIM (stimulant) (Sprague-Dawley rats [1]; mirtazapine 2.2 mg/kg): 0%
ED50 marble burying (mice): 5.5 mg/kg
Latency from time of injection to Deep sleep (Sprague-Dawley rats [2]; [12]): −36%
Latency from time of injection to REM sleep (Sprague-Dawley rats [2]; [12]): 27%
Median duration Active waking (Sprague-Dawley rats [2]; [12]): 19%
Median duration Deep sleep (Sprague-Dawley rats [2]; [12]): 13%
Median duration Intermediate sleep (Sprague-Dawley rats [2]; [12]): −85* %
Median duration Light sleep (Sprague-Dawley rats [2]; [12]): 7%
Median duration Passive waking (Sprague-Dawley rats [2]; [12]): −5%
Median duration REM sleep (Sprague-Dawley rats [2]; [12]): −88* %
Median duration Active waking (Sprague-Dawley rats [2]; [13]): 68%
Median duration Deep sleep (Sprague-Dawley rats [2]; [13]): 19%
Median duration Intermediate sleep (Sprague-Dawley rats [2]; [13]): −74* %
Median duration Light sleep (Sprague-Dawley rats [2]; [13]): 10%
Median duration Passive waking (Sprague-Dawley rats [2]; [13]): 17%
Median duration REM sleep (Sprague-Dawley rats [2]; [13]): −52* %
Median duration Active waking (Sprague-Dawley rats [2]; [14]): −16%
Median duration Deep sleep (Sprague-Dawley rats [2]; [14]): 20%
Median duration Light sleep (Sprague-Dawley rats [2]; [14]): 27%
Median duration Passive waking (Sprague-Dawley rats [2]; [14]): −8%
Median duration REM sleep (Sprague-Dawley rats [2]; [14]): 22%
Median duration Intermediate sleep (Sprague-Dawley rats [2]; mirt 2.2 mg/kg): 111%
